Laboratory results: a compilation of properties of binary mixtures (doi:10.1080/00319104.2019.1566461)

Assay: xn = mol fraction of the nth substance listed
Conditions: 101.3 kPa

CCOS(=O)(=O)[O-].CC[n+]1ccn(C)c1 + CC(C)C(=O)O
x2 = 0
Conditions	speed of sound [m/s]
293.15 K	1686.8
298.15 K	1671.4
303.15 K	1661.9
308.15 K	1649.6

CCOS(=O)(=O)[O-].CC[n+]1ccn(C)c1 + CCCCC(=O)O
x2 = 0
Conditions	speed of sound [m/s]
288.15 K	1696.4
293.15 K	1686.8
298.15 K	1671.4
303.15 K	1661.9
308.15 K	1649.6
313.15 K	1637.5

CC(C)C(=O)O + CCOS(=O)(=O)[O-].CC[n+]1ccn(C)c1
speed of sound [m/s]
Conditions	288.15 K	293.15 K	298.15 K	303.15 K	308.15 K	313.15 K
x1 = 0.1122	1665.5	1652.8	1640	1627.4	1614.9	1602.6
x1 = 0.2295	–	–	1606.3	1593.5	1580.8	1568.2
x1 = 0.3297	1592.5	–	1566.2	1553.2	1540.2	1527.4
x1 = 0.4305	1554.5	1541.2	–	1514.4	1501.1	1488.1
x1 = 0.5464	1501.1	1487.4	–	1459.8	1446.2	1432.7
x1 = 0.6412	–	1439.4	1425.1	1411	1396.9	1383.1
x1 = 0.728	1398.5	1383.9	1369.1	1354.4	1339.9	1325.5
x1 = 0.8127	1331.5	–	–	1284.8	1269	1253.8
x1 = 0.9073	1256.7	1240	1222.8	1205.6	1188.9	1172.5
x1 = 0.9336	1233.1	1213.2	–	–	1162.5	–
x1 = 0.9576	1200.2	–	1158.9	1141	1122.2	1100.7
x1 = 1	1159	1140.3	1121.2	–	1083.6	1065.1

CCCCC(=O)O + CCOS(=O)(=O)[O-].CC[n+]1ccn(C)c1
speed of sound [m/s]
Conditions	288.15 K	293.15 K	298.15 K	303.15 K	308.15 K	313.15 K
x1 = 0.0974	–	1655.2	1642.4	1629.8	1617.2	1604.9
x1 = 0.1949	1636.9	–	1611	1598.1	1585.4	1572.9
x1 = 0.2975	1598.8	–	1572.4	–	1546.4	–
x1 = 0.3947	–	–	1538.1	1524.8	–	1498.6
x1 = 0.495	1525	1511.5	1497.7	1484.1	1470.7	1457.3
x1 = 0.595	–	–	1455.3	1441.2	–	1413.8
x1 = 0.6941	1435.7	1421.3	1406.7	1392.3	1377.9	1363.7
x1 = 0.7905	1383	1367.9	1352.6	1337.5	1322.4	1307.5
x1 = 0.8965	1315	1298.6	1282	1265.6	1249.4	1233.2
x1 = 0.926	1295.1	1278.3	1261.3	1244.4	1227.7	1211.1
x1 = 0.9529	1277.5	–	1242.8	–	1208.3	1191.3
x1 = 1	1253.7	1235.8	–	1199.5	–	1163.9
